Experimental data from ChEMBL document CHEMBL1153745, “The Caulerpa pigment caulerpin inhibits HIF-1 activation and mitochondrial respiration” (J Nat Prod, 2009).
Active and inactive are the calls of the source. No cut-off for these calls is given here.

Tests used:
HUVEC [1] = assay: Antiangiogenic activity in human HUVEC cells assessed as decrease in branch point number up to 30 uM after 18 hrs by Matrigel based tube formation assay; assay type: functional, cell-based
MDA-MB-231 [2] = assay: Cytotoxicity against human MDA-MB-231 cells up to 30 uM after 22 hrs by neutral red method; assay type: cell-based; details: mda-mb-231, 22 h
HUVEC [3] = assay: Antiangiogenic activity in human HUVEC cells assessed as decrease in tube length up to 30 uM after 18 hrs by Matrigel based tube formation assay; assay type: functional, cell-based
T47D [4] = assay: Inhibition of electron transport protein complex 1 in digitonin-permeabilized human T47D cells assessed as decrease in oxygen consumption at 30 uM by mitochondrial respiration assay; assay type: cell-based
[5] = target: T1, Hypoxia inducible factors; HIF-1-alpha, HIF-2-alpha (Homo sapiens) (UniProt Q16665+Q99814); assay: Inhibition of 1,10-phenanthroline-induced HIF1 activation in human T47D cells after 16 hrs by pTK-HRE3-luciferase reporter gene assay; assay type: cell-based
[6] = target: T1, Hypoxia inducible factors; HIF-1-alpha, HIF-2-alpha (Homo sapiens); assay: Inhibition of 1,10-phenanthroline-induced HIF1 activation in human T47D cells at 1 uM after 16 hrs by pTK-HRE3-luciferase reporter gene assay; assay type: cell-based
[7] = target: T1, Hypoxia inducible factors; HIF-1-alpha, HIF-2-alpha (Homo sapiens); assay: Inhibition of hypoxia-induced HIF1 activation in human T47D cells at 1 uM after 16 hrs by pTK-HRE3-luciferase reporter gene assay; assay type: cell-based
T47D [8] = assay: Cytotoxicity against human T47D cells under hypoxic conditions at 30 uM after 16 hrs; assay type: cell-based
T47D [9] = assay: Effect on luciferase expression in hypoxia-stimulated human T47D cells expressing pGL3 construct at 30 uM after 16 hrs by reporter gene assay; assay type: functional
T47D [10] = assay: Inhibition of hypoxia-induced VEGF mRNA expression in human T47D cells at 30 uM after 16 hrs by RT-PCR; assay type: functional, cell-based
T47D [11] = assay: Inhibition of hypoxia-induced GLUT1 mRNA expression in human T47D cells at 30 uM after 16 hrs by RT-PCR; assay type: functional, cell-based
T47D [12] = assay: Inhibition of hypoxia-induced VEGF mRNA expression in human T47D cells at 10 uM after 16 hrs by RT-PCR; assay type: functional, cell-based
T47D [13] = assay: Inhibition of hypoxia-induced GLUT1 mRNA expression in human T47D cells at 10 uM after 16 hrs by RT-PCR; assay type: functional, cell-based
T47D [14] = assay: Inhibition of 1,10-phenanthroline-induced VEGF mRNA expression in human T47D cells at 30 uM after 16 hrs by RT-PCR; assay type: functional, cell-based
T47D [15] = assay: Inhibition of 1,10-phenanthroline-induced GLUT1 mRNA expression in human T47D cells at 30 uM after 16 hrs by RT-PCR; assay type: functional, cell-based
T47D [16] = assay: Inhibition of hypoxia-induced secreted VEGF protein level in human T47D cells at 10 uM after 16 hrs by ELISA; assay type: functional, cell-based
T47D [17] = assay: Inhibition of secreted VEGF protein level in human T47D cells under normoxic conditions at 10 uM after 16 hrs by ELISA; assay type: functional, cell-based
HUVEC [18] = assay: Antiangiogenic activity in human HUVEC cells assessed as inhibition of hypoxic T47D cell-conditioned media-induced tube formation at 10 uM after 18 hrs by Matrigel based tube formation assay; assay type: functional
HUVEC [19] = assay: Antiangiogenic activity in human HUVEC cells assessed as inhibition of hypoxic T47D cell-conditioned media-induced tube formation at 30 uM after 18 hrs by Matrigel based tube formation assay; assay type: functional
HUVEC [20] = assay: Antiangiogenic activity in human HUVEC cells assessed as inhibition of normoxic T47D cell-conditioned media-induced tube formation at 30 uM after 18 hrs by Matrigel based tube formation assay; assay type: functional
MDA-MB-231 [21] = assay: Inhibition of cell migration in human MDA-MB-231 cells under normoxic conditions after 22 hrs by wound-healing assay; assay type: functional, cell-based
MDA-MB-231 [22] = assay: Inhibition of cell migration in human MDA-MB-231 cells under hypoxic conditions after 22 hrs by wound-healing assay; assay type: functional, cell-based
MDA-MB-231 [23] = assay: Cytotoxicity against human MDA-MB-231 cells under hypoxic conditions up to 30 uM after 22 hrs by neutral red method; assay type: cell-based; details: mda-mb-231, 22 h
MDA-MB-231 [24] = assay: Growth inhibition of human MDA-MB-231 cells at 1 uM to 30 uM after 48 hrs by sulforhodamine B assay; assay type: functional, cell-based
DU-145 = assay: Growth inhibition of human DU145 cells at 1 uM to 30 uM after 48 hrs by sulforhodamine B assay; assay type: functional, cell-based
T47D [25] = assay: Growth inhibition of human T47D cells at 1 uM to 30 uM after 48 hrs by sulforhodamine B assay; assay type: functional, cell-based
MCF7 = assay: Growth inhibition of human MCF7 cells at 1 uM to 30 uM after 48 hrs by sulforhodamine B assay; assay type: functional, cell-based
PC-3 = assay: Growth inhibition of human PC3 cells at 30 uM after 48 hrs by sulforhodamine B assay; assay type: functional; details: PC-3, 48 h, read-out: GI
[26] = Growth inhibition of human HMEC cells up to 30 uM after 48 hrs by sulforhodamine B assay; assay type: cell-based; details: read-out: GI
T47D [27] = assay: Inhibition of hypoxia-induced nuclear HIF1alpha accumulation in human T47D cells at 10 uM after 4 hrs by Western blot analysis; assay type: functional, cell-based
T47D [28] = assay: Inhibition of 1,10-phenanthroline-induced nuclear HIF1alpha accumulation in human T47D cells at 10 uM after 4 hrs by Western blot analysis; assay type: functional, cell-based
T47D [29] = assay: Inhibition of hypoxia-induced nuclear HIF1beta accumulation in human T47D cells at 10 uM after 4 hrs by Western blot analysis; assay type: functional, cell-based
T47D [30] = assay: Inhibition of electron transport protein complex 1 in human T47D cells assessed as reduction of oxygen consumption at 10 uM; assay type: cell-based
T47D [31] = assay: Inhibition of electron transport protein complex 1 in human T47D cells assessed as reduction of oxygen consumption at 30 uM; assay type: cell-based
T47D [32] = assay: Inhibition of electron transport protein complex 1 in human T47D cells assessed as reduction of oxygen consumption at 30 uM pretreated for 2 hrs relative to untreated control; assay type: cell-based
T47D [33] = assay: Inhibition of electron transport protein complex 1 in digitonin-induced permeable human T47D cells assessed as reduction of oxygen consumption at 30 uM relative to control; assay type: cell-based
T47D [34] = assay: Inhibition of electron transport protein complex 1 in human T47D cells assessed as decrease in oxygen consumption at 30 uM pretreated for 2 hrs before malate and pyruvate addition by mitochondrial respiration assay; assay type: cell-based
T47D [35] = assay: Inhibition of electron transport protein complex 2 in human T47D cells assessed as decrease in oxygen consumption at 30 uM pretreated for 2 hrs before succinate addition by mitochondrial respiration assay; assay type: cell-based
T47D [36] = assay: Inhibition of electron transport protein complex 3 in human T47D cells assessed as decrease in oxygen consumption at 30 uM pretreated for 2 hrs before succinate addition by mitochondrial respiration assay; assay type: cell-based
T47D [37] = assay: Inhibition of electron transport protein complex 4 in human T47D cells assessed as decrease in oxygen consumption at 30 uM pretreated for 2 hrs before TMPD/ascorbate addition by mitochondrial respiration assay; assay type: cell-based
T47D [38] = assay: Inhibition of cellular respiration in human T47D cells assessed as oxygen consumption; assay type: functional, cell-based

Question: With `COC(=O)/C1=C/c2c([nH]c3ccccc23)/C(C(=O)OC)=C\c2c1[nH]c1ccccc21` [CAULERPIN] as the molecule, how does the Activity (HUVEC [1]) read?
Answer: Its Activity is “Active”.

Question: And the Activity (MDA-MB-231 [2])?
Answer: Its Activity is 15%.

Question: And the Activity (HUVEC [3])?
Answer: The Activity was “Active”.

Question: And the Activity (T47D [4])?
Answer: The Activity was “Active”.

Question: What about the Activity [5] of the same molecule?
Answer: The Activity was “Dose-dependent effect”.

Question: What about the Activity [6] of the same molecule?
Answer: The Activity was “Active”.

Question: And the Activity [7]?
Answer: Its Activity is “Active”.

Question: And the Activity (T47D [8])?
Answer: The Activity was “<= 10%”.

Question: And the Activity (T47D [9])?
Answer: The Activity was “<=10%”.

Question: And the Activity (T47D [10])?
Answer: Its Activity is “Active”.

Question: And the Activity (T47D [11])?
Answer: Its Activity is “Active”.

Question: What about the Activity (T47D [12]) of the same molecule?
Answer: Its Activity is “inactive”.

Question: And the Activity (T47D [13])?
Answer: The Activity was “inactive”.

Question: And the Activity (T47D [14])?
Answer: Its Activity is “inactive”.

Question: What about the Activity (T47D [15]) of the same molecule?
Answer: Its Activity is “inactive”.

Question: And the Activity (T47D [16])?
Answer: The Activity was “Active”.

Question: And the Activity (T47D [17])?
Answer: Its Activity is “inactive”.

Question: What about the Activity (HUVEC [18]) of the same molecule?
Answer: Its Activity is “Active”.

Question: And the Activity (HUVEC [19])?
Answer: The Activity was “Active”.

Question: What about the Activity (HUVEC [20]) of the same molecule?
Answer: The Activity was “inactive”.

Question: And the Activity (MDA-MB-231 [21])?
Answer: Its Activity is “Dose-dependent effect”.

Question: What about the Activity (MDA-MB-231 [22]) of the same molecule?
Answer: The Activity was “Dose-dependent effect”.

Question: And the Activity (MDA-MB-231 [23])?
Answer: The Activity was 15%.

Question: And the Activity (MDA-MB-231 [24])?
Answer: Its Activity is “Active”.

Question: And the Activity (DU-145)?
Answer: The Activity was “inactive”.

Question: And the Activity (T47D [25])?
Answer: Its Activity is “Active”.

Question: And the Activity (MCF7)?
Answer: The Activity was “Active”.

Question: And the inhibition of growth at 30 µM (PC-3)?
Answer: Its inhibition of growth at 30 µM is 52%.

Question: And the inhibition at 48 h [26]?
Answer: The inhibition at 48 h was < 25%.

Question: What about the Activity (T47D [27]) of the same molecule?
Answer: Its Activity is “Active”.

Question: What about the Activity (T47D [28]) of the same molecule?
Answer: The Activity was “inactive”.

Question: And the Activity (T47D [29])?
Answer: Its Activity is “inactive”.

Question: What about the Activity (T47D [30]) of the same molecule?
Answer: The Activity was “inactive”.

Question: What about the inhibition (T47D [31]) of the same molecule?
Answer: Its inhibition is 30%.

Question: And the inhibition (T47D [32])?
Answer: Its inhibition is 87%.

Question: And the inhibition (T47D [33])?
Answer: Its inhibition is 57%.

Question: And the Activity (T47D [34])?
Answer: Its Activity is “Active”.

Question: What about the Activity (T47D [35]) of the same molecule?
Answer: The Activity was “inactive”.

Question: What about the Activity (T47D [36]) of the same molecule?
Answer: Its Activity is “inactive”.

Question: And the Activity (T47D [37])?
Answer: Its Activity is “inactive”.

Question: And the Activity (T47D [38])?
Answer: Its Activity is “Dose-dependent effect”.
